We go through 14 compounds from patent US20240262831A1, “COMPOUNDS AND USE THEREOF FOR TREATMENT OF NEURODEGENERATIVE, DEGENERATIVE AND METABOLIC DISORDERS” (VOVA IDA THERAPEUTICS, INC., priority 2020, published 2024).

The first data set has as its system PK1 neuroblastoma cells exposed to TPrP. The data set is described as follows: cells. The following applies: Neuroblastoma cell, 96 h, read-out: TPrP EC50.
Turning to `O=C(NCCCn1ccnc1)c1cnn2c(C(F)(F)F)cc(-c3ccccc3)nc12` [SR-229], the concentration for a half-maximal effect (EC50) (in general, the concentration that produces a half-maximal response) was 2 nM.
On the same count and under the same terms, under `CCSc1ccc(-c2cc(=S)n3ncc(C(=O)NCCCn4ccnc4C)c3[nH]2)cc1` [SR-34831] stands 20 nM; under `CCOc1ccc(-c2cc(N3CC[C@@H](NC(C)=O)C3)n3ncc(C(=O)NCCCn4ccnc4C)c3n2)cc1` [SR-32687], < 5 nM.
As for `CCOc1ccc(-c2cc(=O)c3cccc(C(=O)NCCCn4ccnc4C)c3o2)cc1` [SR-35434], the EC50 was determined as 18 nM.
Take `Cc1nccn1CCCNC(=O)c1cnn2c(=O)cc(-c3ccc4c(c3)OCO4)[nH]c12` [SR-31105]: the EC50 was 800 nM.
The same measure, in the same setting: under `CCOc1ccc(-c2cc(N3CC[C@H](NC(C)=O)C3)n3ncc(C(=O)NCCCn4ccnc4C)c3n2)cc1` [SR-32688] stands < 5 nM.
Consider `CCOc1ccc(-c2cc(=O)n3ncc(C(=O)NCCCn4ccnc4C)c3[nH]2)cc1` [SR-32684], for which the concentration for a half-maximal effect (EC50) was found to be 900 nM.
Take `CCOc1ccc(-c2cc(=O)n3ncc(C(=O)NCCCn4ccnc4C)c3n2C)cc1` [SR-32686]: the EC50 was > 2700 nM.
As to `CCOc1ccc(-c2cc(=S)c3scc(C(=O)NCCCn4ccnc4C)c3[nH]2)cc1` [SR-34953], the concentration giving a half-maximal response (EC50) came out at 6 nM.
`CCOc1ccc(-c2cc(=S)n3ncc(C(=O)NCCCn4ccnc4C)c3[nH]2)cc1` [SR-32685]: the EC50 came out at 40 nM.
Consider `CCOc1ccc(-c2cc(Cl)n3ncc(C(=O)NCCCn4ccnc4C)c3n2)cc1` [SR-32689], for which the EC50 came to 20 nM.
In the case of `Cc1cc(-c2ccc3c(c2)OCO3)nc2c(C(=O)NCCCn3ccnc3C)csc12` [SR-33781], the half-maximal effective concentration (EC50) is < 5 nM.
Same read-out and setting: under `CCOc1ccc(-c2cc(=S)c3cccc(C(=O)NCCCn4ccnc4C)c3o2)cc1` [SR-35435] stands 54 nM.

Test system in a further data set: not listed separately
Description: in vitro. As to conditions: mouse, tox (toxicity noted in TPrP EC50 column).
`CCOc1ccc(-c2cc(Cl)n3ncc(C(=O)NCCCn4ccnc4C)c3n2)cc1` [SR-32689]: the EC50 was > 900 nM.

Test system in the next data set: not listed separately
The data set is described as follows: Microsomal stability assay, human hepatic microsomes. The data set is classed as in vitro ADME. The following applies: 1 mg/ml human hepatic microsomes, 37° C., half-life by LC-MS/MS. Here is the method:
The metabolic stability of some test compounds was determined in hepatic human and mouse microsomes. The compound was incubated with 1 mg/ml human or mouse hepatic microsomes at 37° C. with continuous shaking. Aliquots were removed at various time points between 5 minutes and 2 hours and acetonitrile was added to quench the reactions and precipitate the proteins. Samples were then centrifuged through 0.45 μm filter plates and half-lives were determined by LC-MS/MS.
As to `CCOc1ccc(-c2ccn3ccc(C(=O)NCCCn4ccnc4C)c3n2)cc1` [SR-35784], the “Stability in human microsomes ≥15 minutes” value is “Yes”.
